Data on 15 compounds can be found in PubChem BioAssay (NCI).

What all share (experiment): growth of human tumour cells (NCI), 48 h
The test system of test [1] is OVCAR-3 ovarian.
The subject of test [2] is SF-295 CNS.
Test [3] has as its system KM12 colon.
Test [4] has as its system HCC-2998 colon.
Test [5] has as its system HOP-62 NSCLC.
For test [6], the system named is DU-145 prostate.
The test system of test [7] is SK-MEL-5 melanoma.
Test [8] deals with SNB-75 CNS.
Test [9] has as its system HS 578T breast.
The test system of test [10] is PC-3 prostate.
Test [11] has as its system MALME-3M melanoma.

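Five compound concentrations were applied to cells in 96-well plates for 48 hours; endpoints were derived by simple linear interpolation of the resulting dose-response curve. The concentration for full growth arrest is given as TGI.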

With `CN(O)C(=O)CCC(NC(=O)CCC(N)C(=O)O)C(=O)NCC(=O)O` (stereo not given), the TGI in test [1], in test [2], in [3], in [4], in test [5] and in test [6] was > 100 µM in each case. Also, the TGI in [7], in test [8], in [9] and in test [10] was > 100 µM in each case.

As for `O=C1CCCCCCC2=C1C(Sc1ccccc1)CC2` (stereo not given), the TGI in [2] is > 100 µM; in test [3], > 100 µM; in test [5], > 100 µM; in test [7] it was > 100 µM; in test [8], 90.7 µM; in test [11] it was > 100 µM.

In the case of `CCOC(=O)C1(C(=O)OCC)C(C(C)(C)C)=C(C)c2ccccc21`, the TGI in test [1] was 24.9 µM; in test [2] it was 30.2 µM; in [3] it was 25.9 µM; in test [4], 31.2 µM; in test [5], 36.3 µM; in [7], 21.8 µM. In addition, the TGI in [8] turned out to be 61.8 µM; in [11] it was 28.9 µM.

For `O=C(O)c1nc2cc(Cl)ccc2[nH]c1=O`, the TGI in test [1], in test [2], in test [3], in test [4], in test [5] and in test [6] was > 100 µM each time. Also, the TGI in [7], in [9], in test [11] and in test [10] was > 100 µM each time.

`Cn1c(-c2ccco2)ccc1-c1ccc(C=O)o1`: the TGI in test [1], in [2], in test [3], in test [4], in test [5] and in [6] was > 100 µM in each case. Besides, the TGI in test [7], in test [8], in test [11] and in test [10] was > 100 µM throughout.

Regarding `O=[N+]([O-])c1ccc(-c2csc(N=Nc3c(O)[nH]c4ccccc34)n2)cc1`, the TGI was > 100 µM in test [1]; > 100 µM in test [2]; > 100 µM in test [3]; 50.5 µM in test [4]; > 100 µM in test [5]; > 100 µM in test [6]. For the same compound, the values for the TGI in test [7], in test [8] and in test [10] were > 100 µM, > 100 µM and 86.2 µM, respectively.

For `COc1ccc(N2C(=O)C3CC(c4ccc(Br)cc4)c4c([nH]c5ccccc45)C3C2=O)cc1` (stereo not given), the TGI in test [2] was 24.3 µM; in [3], > 100 µM; in test [5] it was 11.5 µM; in [7] it was 35.5 µM; in test [8], 22.5 µM; in [11], 36.7 µM.

On to `O=P1(c2ccccc2)C(c2ccccc2)CCC1c1ccccc1` (stereo not given), for which the TGI in test [1], in test [2], in test [3], in test [4], in test [5] and in [6] was > 100 µM in each case. In addition, the TGI in test [7], in test [8], in test [9] and in test [10] was > 100 µM each time.

As for `CC(=O)OCc1c(O)c2c([nH]c1=O)CCc1ccccc1-2`, the TGI in [1] was 102 µM; in test [2], 274 µM; in test [3], 109 µM; in test [4] it was 197 µM; in test [5] it was > 350 µM; in test [7], 177 µM. Moreover, in [11], the TGI was > 35 µM.

For `CC(C)(C)OC(=O)NCC(CNC(=O)OC(C)(C)C)C(N)=O`, the TGI in test [1], in test [2], in test [3], in test [4], in test [5] and in test [6] was > 100 µM in each case. In addition, the TGI in test [7], in test [9], in [11] and in test [10] was > 100 µM in each case.

In the case of `COc1ccc(CCN2CCN(CCCc3ccccc3)CC2)cc1`, the TGI in [1], in [2], in [3], in test [4], in test [5] and in test [6] was > 100 µM in each case. Moreover, the TGI in test [7] was 56.9 µM; in test [9] it was > 100 µM; in test [11], > 100 µM; in test [10], > 100 µM.

For the compound `COC(NC(=O)Nc1ccc(C)cc1)(C(F)(F)F)C(F)(F)F`, the TGI in test [1] was > 100 µM; in test [2], 90.7 µM; in test [3] it was > 100 µM; in test [5] it was > 100 µM; in [6] it was > 100 µM; in test [7] it was 30.6 µM. For the same compound, the TGI in test [8], in test [9], in [11] and in [10] was > 100 µM throughout.

Regarding `CCCCN(CC)C(=O)C(=O)Cc1nc2ccc(C(=O)c3ccccc3)cc2[nH]c1=O`, the TGI was > 100 µM in test [1]; > 100 µM in test [2]; > 100 µM in test [3]; > 100 µM in [5]; > 100 µM in [7]; > 88.1 µM in test [8].

As to `COC(=O)C1CCC(=O)N1C(c1ccc(OC)cc1)c1cc(OC)c(OC)c(OC)c1` (stereo not given), the TGI was 0.597 µM in test [1]; 0.465 µM in test [2]; 1.12 µM in test [3]; 0.6 µM in test [4]; > 100 µM in [5]; 0.771 µM in test [6]. Moreover, the TGI in [7] is 3.43 µM; in test [8], > 94.7 µM; in [10], > 37.4 µM.

Consider `Fc1cc(C2=Nn3c(COc4ccccc4Cl)nnc3S/C2=C\c2ccc(Cl)cc2)c(Cl)cc1Cl`, for which the TGI was 62 µM in test [1]; > 100 µM in test [2]; 19.6 µM in test [3]; 16.3 µM in test [4]; > 100 µM in test [5]; 81.7 µM in test [6]. Also, the TGI came to 19 µM in test [7], 36.4 µM in test [9] and 68.9 µM in test [10].
